Measurements taken from ChEMBL document CHEMBL3886157, “Heterocyclic carboxamides as modulators of kinase activity” (2015).

What was measured:
[1] = molecular target: Ribosomal protein S6 kinase beta-1 (Homo sapiens, UniProt P23443, T412E); assay: P70S6K Enzyme Assay: P70S6K inhibitor compounds are diluted and plated in 96 well plates. A reaction mixture including the following components is then added to the compound plate to initiate the enzyme reaction; P70S6K (3 nM, T412E mutant, Millipore) is mixed with 24 uM ATP in an assay buffer containing 100 mM Hepes (pH 7.5), 5 mM MgCl2, 1 mM DTT, 0.015% Brij and 1 uM of the substrate peptide FITC-AHA-[…]-OH (derived from the S6 ribosomal protein sequence, FITC=fluorescein isothiocyanate, AHA=6-aminohexanoic acid). The reaction is incubated for 90 min at 25° C., before the addition of 10 mM EDTA to stop the reaction. The proportion of substrate and product (phosphorylated) peptide is analysed on a Caliper Life Sciences Lab Chip 3000, using a pressure of -1.4 psi, and upstream and downstream voltages of -3000 and -700 respectively. Product peaks are resolved before substrate peaks on the resulting chromatograms.
Chain of Ribosomal protein S6 kinase beta-1 (P23443 whole entry T412E): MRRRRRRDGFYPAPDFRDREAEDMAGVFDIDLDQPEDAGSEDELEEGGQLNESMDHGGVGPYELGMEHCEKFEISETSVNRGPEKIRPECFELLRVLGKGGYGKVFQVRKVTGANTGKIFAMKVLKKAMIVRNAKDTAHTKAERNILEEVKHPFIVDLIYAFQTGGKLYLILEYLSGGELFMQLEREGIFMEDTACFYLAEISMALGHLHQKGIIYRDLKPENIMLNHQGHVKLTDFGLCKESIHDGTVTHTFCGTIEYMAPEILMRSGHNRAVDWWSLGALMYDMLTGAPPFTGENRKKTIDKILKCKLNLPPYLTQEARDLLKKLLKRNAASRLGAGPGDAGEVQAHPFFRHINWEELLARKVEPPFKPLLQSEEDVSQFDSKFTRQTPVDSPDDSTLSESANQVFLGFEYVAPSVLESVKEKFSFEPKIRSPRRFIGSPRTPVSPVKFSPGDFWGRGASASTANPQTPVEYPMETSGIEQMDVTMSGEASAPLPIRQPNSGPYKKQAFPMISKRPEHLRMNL

[2] = molecular target: RAC-alpha serine/threonine-protein kinase (Homo sapiens, UniProt P31749); assay: AKT Enzyme Assay: A TTP Mosquito liquid handling instrument is used to place […] of the appropriate concentration of inhibitor in 100% DMSO (for a dose response curve calculation) into each well of a 384-well plate. To this reaction components are added to a final volume of 12.50 0.1 ng/uL His-AKT (Full Length), (Invitrogen, Part # P2999, Lot #641228C). 160 uM ATP (Fluka, 02055) 1 mM DTT (Sigma, D0632) 1 mM MgCl2 (Sigma, M1028) 1 uM substrate peptide (sequence FITC-AHA-[…]-NH2), synthesized by Tufts Peptide Synthesis service. 100 mM HEPES pH 7.5 (Calbiochem, 391338) 0.015% Brij-35 (Sigma, B4184)The reaction is incubated for 90 min at 25° C, and then stopped by the addition of 70 ul of Stop buffer (100 mM HEPES pH 7.5, 0.015% Brij-35, 10 mM EDTA (Sigma, E7889)).The plate is read on a Caliper LC 3000 in an Off-Chip mobility shift assay format, using the following parameters for a 12-sipper chip: screening pressure -2.3 psi, upstream voltage -500, and downstream voltage -3000.
Chain of RAC-alpha serine/threonine-protein kinase (P31749 whole entry): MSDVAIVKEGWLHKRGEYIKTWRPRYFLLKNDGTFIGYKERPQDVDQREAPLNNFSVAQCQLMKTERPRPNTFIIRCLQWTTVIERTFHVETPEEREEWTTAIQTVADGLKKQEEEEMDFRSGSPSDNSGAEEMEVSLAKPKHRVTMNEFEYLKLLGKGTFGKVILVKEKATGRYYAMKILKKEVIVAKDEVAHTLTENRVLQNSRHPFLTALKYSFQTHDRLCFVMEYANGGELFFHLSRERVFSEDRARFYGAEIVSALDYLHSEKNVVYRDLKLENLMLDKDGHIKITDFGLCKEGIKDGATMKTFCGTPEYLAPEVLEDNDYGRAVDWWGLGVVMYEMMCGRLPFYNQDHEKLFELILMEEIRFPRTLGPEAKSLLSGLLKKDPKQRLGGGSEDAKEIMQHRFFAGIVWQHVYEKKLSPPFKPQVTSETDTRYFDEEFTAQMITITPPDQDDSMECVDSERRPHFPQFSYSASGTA

IC50 [1] | IC50 [2] | Structure (SMILES)
98 nM | > 100000 nM | NC(=O)c1ccc(NCCc2ccc(Cl)c(Cl)c2)c2cncnc12
> 100000 nM | > 100000 nM | NC(=O)c1ccc(N2CCN(c3ccc(Cl)c(Cl)c3)CC2)c2cncnc12
690 nM | 57000 nM | NC(=O)c1ccc(NCc2ccccc2)c2cncnc12
> 1000 nM | – | CNC[C@@H](Nc1ccc(C(N)=O)c2ncncc12)c1cccc(F)c1
> 1000 nM | – | NC(=O)c1ccc(NC(=O)C2CNC[C@@H]2c2cccc(F)c2)c2cccnc12 (some centres not stated)
570 nM | – | CN(Cc1ccc(Cl)c(Cl)c1)C1CCN(c2ccc(C(N)=O)c3ncncc23)C1 (racemic)
170 nM | – | NC(=O)c1ccc(NCC(c2ccccc2)N2CCNCC2)c2cncnc12 (racemic)
270 nM | – | NC(=O)c1ccc(N2CCC(N)(C(=O)Nc3ccc(F)c(C(F)(F)F)c3)C2)c2cncnc12 (racemic)
490 nM | – | NC(=O)c1ccc(N2CCC(NCc3ccc(Cl)c(Cl)c3)C2)c2cncnc12 (racemic)
